Results taken from PubChem BioAssay AID248 (DTP/NCI, 2004).
Values joined by “and” are separate entries in the source; they are usually repeats but may differ in a detail not shown here. Identical values can stand only once. Toxic doses and inconclusive results are not listed.

Tested on: L1210 leukemia ip in BDF1 mice, survival T/C
Test: NCI In Vivo Anticancer Drug Screen. Data for tumor model L1210 Leukemia (intraperitoneal) in B6D2F1 (BDF1) mice
Conditions: endpoint: mean survival time, higher = longer survival
In short: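 Antitumor effect is assessed in tumor-bearing animals. Survival in the compound arm is compared with a vehicle-dosed control arm and expressed as their quotient.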

[1] = dose: 100.0 mg/kg/injection, schedule: Q01DX009 (ip), vehicle: saline
[2] = dose: 100.0 mg/kg/injection, schedule: Q04DX003 (ip), vehicle: saline
[3] = dose: 50.0 mg/kg/injection, schedule: Q04DX003 (ip), vehicle: saline with Tween-80
[4] = dose: 100.0 mg/kg/injection, schedule: Q04DX003 (ip), vehicle: saline with Tween-80
[5] = dose: 200.0 mg/kg/injection, schedule: Q04DX003 (ip), vehicle: saline with Tween-80
[6] = dose: 400.0 mg/kg/injection, schedule: Q04DX003 (ip), vehicle: saline with Tween-80
[7] = dose: 50.0 mg/kg/injection, schedule: Q01DX009 (ip), vehicle: Klucel (hydroxypropylcellulose) (HPC)
[8] = dose: 100.0 mg/kg/injection, schedule: Q01DX009 (ip), vehicle: Klucel (hydroxypropylcellulose) (HPC)
[9] = dose: 200.0 mg/kg/injection, schedule: Q01DX009 (ip), vehicle: Klucel (hydroxypropylcellulose) (HPC)
[10] = dose: 100.0 mg/kg/injection, schedule: Q01DX001 (ip), vehicle: Klucel (hydroxypropylcellulose) (HPC)
[11] = dose: 200.0 mg/kg/injection, schedule: Q01DX001 (ip), vehicle: Klucel (hydroxypropylcellulose) (HPC)
[12] = dose: 50.0 mg/kg/injection, schedule: Q01DX001 (ip), vehicle: saline
[13] = dose: 100.0 mg/kg/injection, schedule: Q01DX001 (ip), vehicle: saline
[14] = dose: 200.0 mg/kg/injection, schedule: Q01DX001 (ip), vehicle: saline
[15] = dose: 400.0 mg/kg/injection, schedule: Q01DX001 (ip), vehicle: saline
[16] = dose: 25.0 mg/kg/injection, schedule: Q04DX003 (ip), vehicle: Klucel (hydroxypropylcellulose) (HPC)
[17] = dose: 50.0 mg/kg/injection, schedule: Q01DX001 (ip), vehicle: Klucel (hydroxypropylcellulose) (HPC)
[18] = dose: 50.0 mg/kg/injection, schedule: Q04DX003 (ip), vehicle: Klucel (hydroxypropylcellulose) (HPC)
[19] = dose: 100.0 mg/kg/injection, schedule: Q04DX003 (ip), vehicle: Klucel (hydroxypropylcellulose) (HPC)
[20] = dose: 100.0 mg/kg/injection, schedule: Q01DX009 (ip), vehicle: saline with Tween-80
[21] = dose: 200.0 mg/kg/injection, schedule: Q01DX009 (ip), vehicle: saline with Tween-80
[22] = dose: 400.0 mg/kg/injection, schedule: Q01DX009 (ip), vehicle: saline with Tween-80
[23] = dose: 25.0 mg/kg/injection, schedule: Q01DX009 (ip), vehicle: saline with Tween-80
[24] = dose: 50.0 mg/kg/injection, schedule: Q01DX009 (ip), vehicle: saline with Tween-80
[25] = dose: 400.0 mg/kg/injection, schedule: Q01DX009 (ip), vehicle: Klucel (hydroxypropylcellulose) (HPC)

## O=c1[nH]cc(-c2ccccc2)c(=O)[nH]1
[1]
  T/C: 98 % of control
[2]
  T/C: 95 % of control
dose: 200.0 mg/kg/injection, schedule: Q01DX009 (ip), vehicle: saline
  T/C: 104 % of control
dose: 200.0 mg/kg/injection, schedule: Q04DX003 (ip), vehicle: saline
  T/C: 95 % of control
dose: 400.0 mg/kg/injection, schedule: Q01DX009 (ip), vehicle: saline
  T/C: 104 % of control
dose: 400.0 mg/kg/injection, schedule: Q04DX003 (ip), vehicle: saline
  T/C: 101 % of control

## C#CCCCN1CCC2(CC1)C(=O)N(C(=O)N(C)C)CN2c1ccccc1
dose: 25.0 mg/kg/injection, schedule: Q04DX003 (ip), vehicle: saline with Tween-80
  T/C: 105 % of control
[3]
  T/C: 103 % of control
[4]
  T/C: 88 % of control and 92 % of control

## CC1(C)OCC(/C=C/C=N/Nc2ccc([N+](=O)[O-])cc2)O1 (stereo not given)
[4]
  T/C: 94 % of control
[5]
  T/C: 96 % of control
[6]
  T/C: 91 % of control

## O=c1[nH]c(=O)c2[nH]c(N=Nc3ccc(S(=O)(=O)N(CCCl)CCCl)cc3)nc2[nH]1
[7]
  T/C: 97 % of control
[8]
  T/C: 92 % of control
[9]
  T/C: 94 % of control

## O=C1NC(=O)C(Nc2ccccc2)(c2ccccc2)N1 (stereo not given)
[10]
  T/C: 90 % of control
[11]
  T/C: 95 % of control

## CC(C(=O)O)(c1c[nH]c2ccccc12)c1c[nH]c2ccccc12
[12]
  T/C: 106 % of control
[13]
  T/C: 103 % of control
[14]
  T/C: 92 % of control
[15]
  T/C: 86 % of control

## OC1CCN2CCCc3cccc1c32 (stereo not given)
dose: 12.5 mg/kg/injection, schedule: Q01DX009 (ip), vehicle: DMSO
  T/C: 93 % of control
dose: 12.5 mg/kg/injection, schedule: Q04DX003 (ip), vehicle: DMSO
  T/C: 94 % of control
dose: 25.0 mg/kg/injection, schedule: Q01DX009 (ip), vehicle: DMSO
  T/C: 94 % of control
dose: 25.0 mg/kg/injection, schedule: Q04DX003 (ip), vehicle: DMSO
  T/C: 95 % of control
dose: 50.0 mg/kg/injection, schedule: Q01DX009 (ip), vehicle: DMSO
  T/C: 90 % of control
dose: 50.0 mg/kg/injection, schedule: Q04DX003 (ip), vehicle: DMSO
  T/C: 105 % of control

## COC(OC)c1cc(=O)[nH]c(=S)[nH]1
[16]
  T/C: 100 % of control
[17]
  T/C: 111 % of control
[18]
  T/C: 91 % of control
[10]
  T/C: 90 % of control
[19]
  T/C: 92 % of control
[11]
  T/C: 98 % of control

## C/C(=N/N=C(N)N)c1ccc(NC(=S)Nc2ccc(/C(C)=N/N=C(N)N)cc2)cc1
dose: 20.0 mg/kg/injection, schedule: Q01DX009 (ip), vehicle: water
  T/C: 176 % of control

## Cn1nc(-c2ccc([N+](=O)[O-])o2)nc1N
[12]
  T/C: 98 % of control
[13]
  T/C: 96 % of control
[14]
  T/C: 98 % of control
[15]
  T/C: 104 % of control

## O=C(O)/C(Br)=C\c1ccc(Br)o1
[7]
  T/C: 97 % of control
[8]
  T/C: 94 % of control
dose: 100.0 mg/kg/injection, schedule: Q04DX002 (ip), vehicle: Klucel (hydroxypropylcellulose) (HPC)
  T/C: 97 % of control
[9]
  T/C: 97 % of control
dose: 200.0 mg/kg/injection, schedule: Q04DX002 (ip), vehicle: Klucel (hydroxypropylcellulose) (HPC)
  T/C: 90 % of control

## CN(C)CC(=O)Nc1cc(Cl)ccc1Oc1ccc(Cl)cc1
[4]
  T/C: 94 % of control
[5]
  T/C: 100 % of control
[6]
  T/C: 100 % of control

## CN=C(N)C(N)=NC
[4]
  T/C: 104 % of control
[5]
  T/C: 102 % of control
[6]
  T/C: 95 % of control

## CC1CC(C)/C(=N/N(C)C)C(C(O)CC2CC(=O)NC(=O)C2)C1 (stereo not given)
dose: 77.8 mg/kg/injection, schedule: Q01DX Z (ip), vehicle: carboxymethylcellulose (CMC)
  T/C: 106 % of control
dose: 116.7 mg/kg/injection, schedule: Q01DX Z (ip), vehicle: carboxymethylcellulose (CMC)
  T/C: 105 % of control
dose: 262.5 mg/kg/injection, schedule: Q01DX Z (ip), vehicle: carboxymethylcellulose (CMC)
  T/C: 119 % of control

## CCCCOC(=O)CCSCCC(=O)OCCCC
[20]
  T/C: 102 % of control
[21]
  T/C: 94 % of control
[22]
  T/C: 102 % of control

## CCN1C(N)=NC(N)=NC1c1ccccc1 (stereo not given)
dose: 25.0 mg/kg/injection, schedule: Q01DX001 (ip), vehicle: Klucel (hydroxypropylcellulose) (HPC)
  T/C: 103 % of control
[17]
  T/C: 97 % of control
[10]
  T/C: 102 % of control and 103 % of control

## O=[N+]([O-])c1ccc(NCCO)cc1
[12]
  T/C: 96 % of control
[13]
  T/C: 96 % of control
[14]
  T/C: 102 % of control
[15]
  T/C: 96 % of control

## C=CCn1c2ccccc2c2c(C)c3cnccc3c(C)c21
[23]
  T/C: 97 % of control
dose: 37.5 mg/kg/injection, schedule: Q04DX003 (ip), vehicle: saline
  T/C: 111 % of control
[24]
  T/C: 102 % of control
[3]
  T/C: 119 % of control
dose: 75.0 mg/kg/injection, schedule: Q01DX009 (ip), vehicle: saline with Tween-80
  T/C: 186 % of control
dose: 75.0 mg/kg/injection, schedule: Q04DX003 (ip), vehicle: saline
  T/C: 163 % of control
[20]
  T/C: 111 % of control
dose: 125.0 mg/kg/injection, schedule: Q04DX003 (ip), vehicle: saline with Tween-80
  T/C: 184 % of control
dose: 150.0 mg/kg/injection, schedule: Q01DX009 (ip), vehicle: saline with Tween-80
  T/C: 172 % of control
dose: 300.0 mg/kg/injection, schedule: Q04DX003 (ip), vehicle: saline
  T/C: 156 % of control

## O=C1CN(O)C(c2ccccc2)=c2cc(Cl)ccc2=N1
dose: 25.0 mg/kg/injection, schedule: Q01DX009 (ip), vehicle: Klucel (hydroxypropylcellulose) (HPC)
  T/C: 100 % of control
[16]
  T/C: 98 % of control
[7]
  T/C: 101 % of control
[18]
  T/C: 108 % of control
[8]
  T/C: 95 % of control
[19]
  T/C: 90 % of control
[9]
  T/C: 92 % of control
dose: 200.0 mg/kg/injection, schedule: Q04DX003 (ip), vehicle: Klucel (hydroxypropylcellulose) (HPC)
  T/C: 93 % of control
[25]
  T/C: 108 % of control
dose: 400.0 mg/kg/injection, schedule: Q04DX003 (ip), vehicle: Klucel (hydroxypropylcellulose) (HPC)
  T/C: 98 % of control

## C#CCNC(=O)NCCCl
[20]
  T/C: 97 % of control
[4]
  T/C: 101 % of control
[21]
  T/C: 99 % of control
[5]
  T/C: 104 % of control
[22]
  T/C: 97 % of control
[6]
  T/C: 101 % of control

## CC(C)=CCC1=C(O)C2=C(CCCC2)C(=O)C1=O
dose: 100.0 mg/kg/injection, schedule: Q01DX001 (ip), vehicle: water
  T/C: 102 % of control
dose: 200.0 mg/kg/injection, schedule: Q01DX001 (ip), vehicle: water
  T/C: 106 % of control
dose: 400.0 mg/kg/injection, schedule: Q01DX001 (ip), vehicle: water
  T/C: 93 % of control

## O=C1C(Cl)=C(Cl)C(=O)c2cc(Cl)c(Cl)cc21
dose: 10.0 mg/kg/injection, schedule: Q01DX001 (ip), vehicle: saline
  T/C: 93 % of control

## c1ccc2c(c1)C[N+](=C1CCCCC1)Cc1ccccc1-2
dose: 25.0 mg/kg/injection, schedule: Q01DX009 (ip), vehicle: saline
  T/C: 103 % of control
dose: 50.0 mg/kg/injection, schedule: Q01DX009 (ip), vehicle: saline
  T/C: 106 % of control
[1]
  T/C: 101 % of control
[2]
  T/C: 99 % of control

## CC(C(=O)O)C(C)(O)C(C)(C)C (stereo not given)
dose: 100.0 mg/kg/injection, schedule: Q04DX002 (ip), vehicle: saline
  T/C: 104 % of control
dose: 200.0 mg/kg/injection, schedule: Q04DX002 (ip), vehicle: saline
  T/C: 97 % of control
dose: 400.0 mg/kg/injection, schedule: Q04DX002 (ip), vehicle: saline
  T/C: 108 % of control

## CCOC(=O)c1ccc(NC(=S)NCc2cccnc2)cc1
[8]
  T/C: 106 % of control
[9]
  T/C: 97 % of control
[25]
  T/C: 102 % of control

## C=CCSC(=S)OCC
[23]
  T/C: 88 % of control
[24]
  T/C: 104 % of control
[20]
  T/C: 109 % of control
